Measurements from patent US11083717B2, “Compositions and methods for drug sensitization of parasites” (The Texas A&M University System, priority 2015, dated 2021).
Converted amounts (≈) assume the structure as drawn. Like-named read-outs stand apart in the source and are kept apart here. Each block holds one compound with its values, some of them ahead of it.

How the values were obtained:
[1] = test system: Cryptosporidium parvum (CP); assay: Cell culture model of Cryptosporidium parvum infection in HCT-8 cells, real-time qRT-PCR; format: cell-based; details: for inhibition at 0.056 µM: HCT-8, @0.056 uM
Method: Fresh oocysts of CP (Iowa strain) were purchased from Bunch Grass Farm (Deary, Id.). Oocysts were further purified by a Percoll-based gradient centrifugation method and surface sterilized with 10% bleach for 7 min on ice, followed by washes with phosphate-buffered saline (PBS). An ileocecal colorectal adenocarcinoma cell line (HCT-8, ATCC #CCL-244) was used to host the growth of CP in vitro. One day before the inoculation, HCT-8 cells were seeded in 96-well plates (2.5×10^4/well) containing RPMI 1640 medium supplied with 10% fetal bovine serum (200 μL medium/well in all experiments) and allowed to grow overnight at 37° C. under 5% CO2 atmosphere until they reached ˜90% confluence. For drug testing, host cells were infected with 1.5×10^4 oocysts per well (ratio ˜1:3). After inoculation, parasite oocysts were allowed to undergo excystation and invasion into host cells for 3 h at 37° C. Free parasites and oocyst walls in the medium were removed from the plates by an exchange of the culture medium. Drugs at specified concentrations were added into the culture at this time point (immediately after the medium exchange). Parasite-infected cells were then incubated at 37° C. for additional 41 h (total 44 h infection time). At least two independent experiments were conducted for every experimental condition, each including two replicates drugs and eight replicates for negative controls.
Plates containing HCT-8 cells infected with CP for 44 h were first centrifuged for 10 min at 1000×g to ensure that free merozoites in the medium were firmly settled on the bottom of the wells. Medium was removed, followed by two gentle washes with PBS. For extracting total RNA, 200 μL of ice-cold Bio-Rad iScript qRT-PCR sample preparation reagent (lysis buffer) (Bio-Rad Laboratories, Hercules, Calif.) was added into each well. Plates were sealed with heat sealing films and subjected to vortex for 20 min. Plates were then incubated at 75° C. for 15 min, followed by centrifugation (5 min, 2000×g) to settle down cell debris. Supernatants were used immediately in subsequent qRT-PCR reactions or the plates were stored at −80° C. until use.
The levels of 18S rRNA transcripts from CP and host cells (referred to as Cp18S and Hs18S) were detected by real-time qRT-PCR method using qScrip™ one-step SYBR green qRT-PCR kit (Quanta Biosciences, Gaithersburg, Md.). Cell lysates prepared as described above were diluted by 100 and 2000 folds for detecting Cp18S and Hs18S transcripts, respectively. Reactions were performed in hard-shell 384-well skirted PCR plates (Bio-Rad Laboratories, Hercules, Calif.) (10 μL/well) containing 3 μL diluted cell lysate, 5 μL one-step SYBR green master mix, 0.2 μl RT master mix and the following primers: Cp18S-1011F and Cp18S-1185R primer pair for Cp18S rRNA, and Hs18S-1F and Hs18S-1R primer pair for Hs18S rRNA. Hs18S levels were used as controls and for normalization.
Real-time qRT-PCR reactions were performed by a Bio-Rad CFX384 Touch Real-Time PCR Detection System. The reactions started with synthesizing cDNA at 50° C. for 20 min, followed by 5 min at 95° C. to denature RNA-cDNA hybrids and deactivate reverse transcriptase, and 40 two-temperature thermal cycles of PCR amplification at 95° C., 10 sec and 58° C., 30 sec. At the end of PCR amplification, melting curve analysis was performed between 65° C. to 95° C. At least 2 technical replicates were included in qRT-PCR reactions for each sample.
The % inhibition (% inh @ (μM)) was calculated using a standard curve.

S. cerevisiae = assay: in vitro; details: Saccharomyces cerevisiae
human fibroblast = assay: in vitro; details: human
[2] = Cryptosporidium parvum, 44 h, CP in HCT-8 cells, 44 h infection, 50% reduction of parasite growth vs control, NA: not active, read-out: MIC50
[3] = CP in HCT-8 cells, 44 h infection, 50% reduction of parasite growth vs control, NA: not active, read-out: MIC50

Structure (SMILES): CC(C(=O)N1CCN(C)CC1)c1ccc(Oc2nc3ccc(Cl)cc3s2)cc1 (single isomer, unassigned) [NZ-366 (peak 1), 2-{4-[(6-chloro-1,3-benzothiazol-2-yl)oxy]phenyl}-1-(4-methylpiperazin-1-yl)propan-1-one]
MIC50 [1, 2]: < 0.05 µM | inhibition at 0.05 µM ([1]; Cryptosporidium parvum, HCT-8, @0.05 uM, read-out: % inh @): 85%

Structure (SMILES): CC(C(=O)N1CCN(C)CC1)c1ccc(Oc2nc3ccc(Cl)cc3s2)cc1 (single isomer, unassigned) [NZ-366 (peak 2), 2-{4-[(6-chloro-1,3-benzothiazol-2-yl)oxy]phenyl}-1-(4-methylpiperazin-1-yl)propan-1-one]
% inh @ (μM) ([1]; @0.05 uM): 81% @0.05 uM | MIC50 [1, 3]: <0.05 µM

Structure (SMILES): CNC(=O)C(C)c1ccc(Oc2nc3ccc(Cl)cc3s2)cc1 (single isomer, unassigned) [NZ-369 (peak 1), 2-{4-[(6-chloro-1,3-benzothiazol-2-yl)oxy]phenyl}-N-methylpropanamide]
MIC50 [1, 3]: 0.07 µM (≈ 0.0243 µg/mL)

Structure (SMILES): CNC(=O)C(C)c1ccc(Oc2nc3ccc(Cl)cc3s2)cc1 (single isomer, unassigned) [NZ-369 (peak 2), 2-{4-[(6-chloro-1,3-benzothiazol-2-yl)oxy]phenyl}-N-methylpropanamide]
MIC50 ([1]; CP in HCT-8 cells, 44 h infection, 50% reduction of parasite growth vs control, NA: not active): ~0.02 µM (≈ 0.00694 µg/mL)

Structure (SMILES): CS(=O)(=O)NC(=O)COc1ccc(Oc2cnc3cc(Cl)ccc3n2)cc1 [NZ-259, 2-{4-[(6-chloroquinoxalin-2-yl)oxy]phenoxy}-N-methanesulfonylacetamide]
MIC50 [1, 2]: > 10 µM | inhibition at 10 µM ([1]; Cryptosporidium parvum, HCT-8, @10 uM, read-out: % inh @): 33%

Structure (SMILES): C[C@@H](Oc1ccc(Oc2nc3ccc([N+](=O)[O-])cc3s2)cc1)C(=O)O [NZ-261, (2R)-2-{4-[(6-nitro-1,3-benzothiazol-2-yl)oxy]phenoxy}propanoic acid]
MIC50 ([1]; Cryptosporidium parvum, 44 h): ~10 µM (≈ 3.6 µg/mL) | inhibition at 10 µM ([1]; Cryptosporidium parvum, HCT-8, read-out: % inh @ (μM)): 60%

Structure (SMILES): CN1CCN(C(=O)COc2ccc(Oc3cnc4cc(Cl)ccc4n3)cc2)CC1 [NZ-278, 2-{4-[(6-chloroquinoxalin-2-yl)oxy]phenoxy}-1-(4-methylpiperazin-1-yl)ethan-1-one]
MIC50 ([1]; Cryptosporidium parvum, 44 h): ~0.25 µM (≈ 0.103 µg/mL)

Structure (SMILES): CC(C(=O)N1CCN(C2CC2)CC1)c1ccc(Oc2nc3ccc(Cl)cc3s2)cc1 (stereo not shown) [NZ-511, 2-{4-[(6-chloro-1,3-benzothiazol-2-yl)oxy]phenyl}-1-(4-cyclopropylpiperazin-1-yl)propan-1-one]
concentrations at which not toxic, S. cerevisiae cytotoxicity testing (S. cerevisiae): ≥ 100 µM | concentrations at which not toxic, human fibroblast cytotoxicity testing (human fibroblast): ≥ 100 µM

Structure (SMILES): CC(C(=O)N1CCN(CC(F)(F)F)CC1)c1ccc(Oc2nc3ccc(Cl)cc3s2)cc1 (stereo not shown) [NZ-512]
concentrations at which not toxic, S. cerevisiae cytotoxicity testing (S. cerevisiae): ≥ 100 µM | concentrations at which not toxic, human fibroblast cytotoxicity testing (human fibroblast): ≥ 100 µM

Structure (SMILES): CC(C(=O)N1CCN(C2COC2)CC1)c1ccc(Oc2nc3ccc(Cl)cc3s2)cc1 (stereo not shown) [NZ-513, 2-{4-[(6-chloro-1,3-benzothiazol-2-yl)oxy]phenyl}-1-[4-(oxetan-3-yl)piperazin-1-yl]propan-1-one]
concentrations at which not toxic, S. cerevisiae cytotoxicity testing (S. cerevisiae): ≥ 100 µM | concentrations at which not toxic, human fibroblast cytotoxicity testing (human fibroblast): ≥ 100 µM

Structure (SMILES): CC(C(=O)N1CCOCC1)c1ccc(Oc2cnc3cc(Cl)ccc3n2)cc1 (stereo not shown) [NZ-529, 2-{4-[(6-chloroquinoxalin-2-yl)oxy]phenyl}-1-(morpholin-4-yl)propan-1-one]
MIC50 [1, 2]: > 0.45 µM

Structure (SMILES): CC(C(=O)NCC(O)CO)c1ccc(Oc2cnc3cc(Cl)ccc3n2)cc1 (stereo not shown) [NZ-534, 2-{4-[(6-chloroquinoxalin-2-yl)oxy]phenyl}-N-(2,3-dihydroxypropyl)propanamide]
concentrations at which not toxic, S. cerevisiae cytotoxicity testing (S. cerevisiae): ≥ 100 µM | concentrations at which not toxic, human fibroblast cytotoxicity testing (human fibroblast): ≥ 100 µM

Structure (SMILES): O=C(N1CCOCC1)C1(c2ccc(Oc3nc4ccc(Cl)cc4s3)cc2)CC1 [NZ-561, 6-chloro-2-{4-[1-(morpholine-4-carbonyl)cyclopropyl]phenoxy}-1,3-benzothiazole]
MIC50 [1, 2]: 0.04 µM (≈ 0.0166 µg/mL)

Structure (SMILES): O=C(N1CCS(=O)(=O)CC1)C1(c2ccc(Oc3nc4ccc(Cl)cc4s3)cc2)CC1 [NZ-563, 4-(1-{4-[(6-chloro-1,3-benzothiazol-2-yl)oxy]phenyl}cyclopropanecarbonyl)-1λ^6,4-thiomorpholine-1,1-dione]
MIC50 [1, 2]: 0.018 µM (≈ 0.00833 µg/mL)

Further lines, with some results ahead:

MIC50 [1, 2]: > 0.45 µM
Structure (SMILES): CC(C(=O)NCCN)c1ccc(Oc2nc3ccc(Cl)cc3s2)cc1 (stereo not shown) [NZ-518, N-(2-aminoethyl)-2-{4-([6-chloro-1,3-benzothiazol-2-yl)oxy]phenyl}propanamide]

MIC50 [1, 2]: 0.25 µM (≈ 0.0897 µg/mL)
Structure (SMILES): CNC(=O)C1(c2ccc(Oc3nc4ccc(Cl)cc4s3)cc2)CC1 [NZ-521, 1-{4-[(6-chloro-1,3-benzothiazol-2-yl)oxy]phenyl}-N-methylcyclopropane-1-carboxamide]

MIC50 [1, 2]: 0.022 to 0.045 µM (≈ 0.00942 to 0.0193 µg/mL)
Structure (SMILES): CN1CCN(C(=O)C2(c3ccc(Oc4nc5ccc(Cl)cc5s4)cc3)CC2)CC1 [NZ-522, 6-chloro-2-{4-[1-(4-methylpiperazine-1-carbonyl)cyclopropyl]phenoxy}-1,3-benzothiazole]

MIC50 [1, 2]: ~0.225 µM (≈ 0.0801 µg/mL)
Structure (SMILES): CC(C(=O)N(C)C)c1ccc(Oc2cnc3cc(Cl)ccc3n2)cc1 (stereo not shown) [NZ-530, 2-{4-([6-chloroquinoxalin-2-yl)oxy]phenyl}-N,N-dimethylpropanamide]

MIC50 [1, 2]: 0.225 to 0.45 µM (≈ 0.0898 to 0.18 µg/mL)
Structure (SMILES): CC(C(=O)NCCN(C)C)c1ccc(Oc2cnc3cc(Cl)ccc3n2)cc1 (stereo not shown) [NZ-535]

MIC50 [1, 2]: 0.112 µM (≈ 0.0487 µg/mL)
Structure (SMILES): COCC(COC)NC(=O)C(C)c1ccc(Oc2nc3ccc(Cl)cc3s2)cc1 (stereo not shown) [NZ-542, 2-{4-[(6-chloro-1,3-benzothiazol-2-yl)oxy]phenyl}-N-(1,3-dimethoxypropan-2-yl)propanamide]

MIC50 [1, 2]: < 0.056 µM
Structure (SMILES): CC(C(=O)N(C)CCN(C)C)c1ccc(Oc2nc3ccc(Cl)cc3s2)cc1 (stereo not shown) [NZ-547, 2-{4-[(6-chloro-1,3-benzothiazol-2-yl)oxy]phenyl}-N-[2-(dimethylamino)ethyl]-N-methylpropanamide]
inhibition at 0.056 µM ([1]; Cryptosporidium parvum): 96%

MIC50 [1, 2]: 0.112 to 0.225 µM (≈ 0.0437 to 0.0877 µg/mL)
Structure (SMILES): CNCCNC(=O)C(C)c1ccc(Oc2nc3ccc(Cl)cc3s2)cc1 (stereo not shown) [NZ-548, 2-{4-[(6-chloro-1,3-benzothiazol-2-yl)oxy]phenyl}-N-[2-(methylamino)ethyl]propanamide]
inhibition at 0.112 µM ([1]; Cryptosporidium parvum, HCT-8, @0.112 uM): 45%

MIC50 [1, 2]: 0.056 to 0.112 µM (≈ 0.025 to 0.0499 µg/mL)
Structure (SMILES): CC(C(=O)N1CCOC(C(N)=O)C1)c1ccc(Oc2nc3ccc(Cl)cc3s2)cc1 (stereo not shown) [NZ-554, 4-(2-{4-[(6-chloro-1,3-benzothiazol-2-yl)oxy]phenyl}propanoyl)morpholine-2-carboxamide]

MIC50 [1, 2]: < 0.056 µM
Structure (SMILES): CC(C(=O)N1CCOCC1CO)c1ccc(Oc2nc3ccc(Cl)cc3s2)cc1 (stereo not shown) [NZ-555, 2-{4-[(6-chloro-1,3-benzothiazol-2-yl)oxy]phenyl}-1-[3-(hydroxymethyl)morpholin-4-yl]propan-1-one]
inhibition at 0.056 µM ([1]; Cryptosporidium parvum): 79%

MIC50 [1, 2]: ~0.056 µM (≈ 0.0243 µg/mL)
Structure (SMILES): CC(C(=O)NCCN(C)CCO)c1ccc(Oc2nc3ccc(Cl)cc3s2)cc1 (stereo not shown) [NZ-556, 2-{4-[(6-chloro-1,3-benzothiazol-2-yl)oxy]phenyl}-N-{2-[(2-hydroxyethyl)(methyl)amino]ethyl}propanamide]
inhibition at 0.056 µM ([1]; Cryptosporidium parvum): 64%

MIC50 [1, 2]: 0.112 to 0.225 µM (≈ 0.052 to 0.104 µg/mL)
Structure (SMILES): CC(C(=O)NCCN(CCO)CCO)c1ccc(Oc2nc3ccc(Cl)cc3s2)cc1 (stereo not shown) [NZ-557, N-{2-[bis(2-hydroxyethyl)amino]ethyl}-2-{4-[(6-chloro-1,3-benzothiazol-2-yl)oxy]phenyl}propanamide]

MIC50 [1, 2]: ~0.056 µM (≈ 0.0242 µg/mL)
Structure (SMILES): CC(C(=O)N1CCOC(CO)C1)c1ccc(Oc2nc3ccc(Cl)cc3s2)cc1 (stereo not shown) [NZ-558, 2-{4-[(6-chloro-1,3-benzothiazol-2-yl)oxy]phenyl}-1-[2-(hydroxymethyl)morpholin-4-yl]propan-1-one]

MIC50 [1, 2]: ~0.45 µM (≈ 0.187 µg/mL)
Structure (SMILES): CC(C(=O)NC1CNC(=O)C1)c1ccc(Oc2nc3ccc(Cl)cc3s2)cc1 (stereo not shown) [NZ-562, 2-{4-[(6-chloro-1,3-benzothiazol-2-yl)oxy]phenyl}-N-(5-oxopyrrolidin-3-yl)propanamide]
